Reference: article PMC12406681 (Antimicrobial Agents and Chemotherapy, 2025)
“And” between values parts separate entries of the source, which are not always exact repeats. Equal values may be shown once. Read-outs that look alike come from different tables or passages of the source.

Key:
CEN of orthobunyaviruses = test system: CEN of orthobunyaviruses; design: method as in PMID 32766680, PMID 38656310; settings: cited from earlier work
LACV [1] = assay: microbe, parasite or virus in culture; assay type: cell-based, La Crosse virus
LACV [2] = assay: microbe, parasite or virus in culture; assay type: cell-based, La Crosse virus; remark: listed apart in the source
[3] = Cell viability assay (MTT), uninfected Vero cells; assay type: cell-based; settings: African green monkey, mean ± SD
Experimental: (§1) CPE-based antiviral activity and cell viability assays were conducted as previously reported ([23]), with several modifications. Vero and SH-SY5Y cells were treated with serially diluted compounds in minimum essential medium (MEM) containing 2% FBS. In the antiviral evaluation, the cells were infected with LACV (40–80 plaque-forming unit [PFU]/well for Vero and 300–4,000 PFU/well for SH-SY5Y cells). In the cell viability assays, the cells treated with the compounds were cultured in the absence of viral infection. After 2 or 3 days of culture, the cells were stained with 3-(4,5-dimethylthiazol-2-yl)-2,5-diphenyltetrazolium bromide (MTT). The antiviral activity (50% effective concentration values, EC50) was calculated using Prism version 9.5.1 (GraphPad, La Jolla, CA, USA) using the four-parameter logistic method. Non-infected and non-treated cells were defined as the 100% inhibition control, while LACV-infected and non-treated cells were defined as the 0% inhibition control. Cell viability (50% cytotoxicity concentration values, CC50) was calculated using the MTT assay. Non-treated control cells were defined as the 100% cell viability control, while wells containing culture medium without cells were defined as the 0% cell viability control. Selective Index (SI50) was calculated as the ratio of CC50 to EC50 (CC50/EC50).

[4] = Cell viability assay (MTT), uninfected SH-SY5Y cells; assay type: cell-based; settings: human, MTT at 3 dpi, mean ± SD
Experimental: as §1

LACV passage control WT [5] = assay: microbe, parasite or virus in culture; assay type: cell-based; settings: La Crosse virus, Vero
LACV [6] = assay type: cell-based, La Crosse virus
LACV passage control WT [7] = assay: microbe, parasite or virus in culture; assay type: cell-based; settings: La Crosse virus, SH-SY5Y
[8] = assay type: in vivo; settings: uninfected mice; s.c. once daily for 7 days
[9] = test system: Bunyaviruses, including LACV; design: method as in PMID 36037386; settings: cited from earlier work

SMILES	Binding to CEN and inhibition of enzymatic activity (CEN of orthobunyaviruses)	EC50 (LACV [1])	EC50 (LACV [1]; La Crosse virus, Vero)	EC50 (LACV [2]; La Crosse virus, SH-SY5Y)	CC50 [3]	CC50 at 3 days [4]	EC50 (LACV passage control WT [5])	Viral RNA expression, entry-stage treatment (LACV [6])	EC50 lower than for T-705 and RBV (LACV [1])	Inhibition of LACV-induced cell death compared with other CEN inhibitors (LACV [1])	Antiviral activity compared with other CEN inhibitors (LACV [2])	EC50 (LACV [2])	EC50 (LACV passage control WT [7])	Body weight changes versus vehicle-treated mice [8]	Susceptibility of bunyaviruses among the four CEN inhibitors [9]
O=C1c2c(O)c(=O)ccn2N([C@@H]2c3ccccc3SCc3c2ccc(F)c3F)[C@@H]2COCCN12 [BXA, baloxavir acid]	binds to the CEN of orthobunyaviruses and inhibits its enzymatic activity														
NC(=O)c1nc(F)c[nH]c1=O [T-705, favipiravir, reference compound]		37.8 ± 3.96 µM	33.9 ± 5.29 µM	> 100 µM	117 ± 24.7 µM	> 200 µM	43.8 ± 11.5 µM	no inhibitory effect							
NC(=O)c1ncn([C@@H]2O[C@H](CO)[C@@H](O)[C@H]2O)n1 [RBV, Ribavirin, reference compound]			> 100 µM	> 100 µM	82.1 ± 28.4 µM	121 ± 7.61 µM									
CC(C)N1CN(C2c3ccccc3CCc3ccccc32)n2cc(C(=O)O)c(=O)c(O)c2C1=O [CAPCA-1, carbamoyl pyridone carboxylic acid (CAPCA)-1]				< 1 µM	> 50 µM	> 50 µM	0.79 ± 0.39 µM	no inhibitory effect	more than 50 fold	inhibited LACV-induced cell death at lower concentrations than the other CEN inhibitors	antiviral activity comparable to that of CAPCA-4 and demonstrated higher activity than CAPCA-2, -3, and -5	0.69 µM and 0.95 µM	0.65 ± 0.05 µM	No significant differences in body weight changes	most susceptible to CAPCA-1
